Source: ChEMBL document CHEMBL2429793, “Potent cytotoxic flavonoids from Iranian Securigera securidaca” (Med Chem Res, 2013)
In brackets after ≈: the same amount, converted by molar mass.

Columns and labels:
T47D = assay: Cytotoxicity against human T47D cells after 48 hrs by MTT assay; format: functional, cell-based
Bel-7402 = assay: Cytotoxicity against human Bel7402 cells; format: functional, cell-based
NIH3T3 = assay: Cytotoxicity against mouse NIH/3T3 cells after 96 hrs by MTT assay; format: cell-based; details: NIH3T3, 96 h
Caco-2 = assay: Cytotoxicity against human Caco2 cells after 48 hrs by MTT assay; format: functional, cell-based; details: Caco-2, 48 h
HCT-116 = assay: Cytotoxicity against human HCT116 cells; format: functional, cell-based
HT-29 = assay: Cytotoxicity against human HT-29 cells after 48 hrs by MTT assay; format: functional, cell-based; details: HT-29, 48 h

| Structure (SMILES) | IC50 (T47D) [µg/mL] | IC50 (Bel-7402) [µM] | IC50 (NIH3T3) [µg/mL] | IC50 (Caco-2) [µg/mL] | IC50 (HCT-116) [µM] | IC50 (HT-29) [µg/mL] |
| --- | --- | --- | --- | --- | --- | --- |
| COc1cc(-c2oc3cc(O)cc(O)c3c(=O)c2O[C@@H]2O[C@H](CO)[C@@H](O)[C@H](O)[C@H]2O[C@@H]2O[C@@H](C)[C@H](O)[C@@H](O)[C@H]2O)ccc1O | 0.003 (≈ 0.0048 µM) | 74.4 | > 200 | 2.47 (≈ 3.95 µM) | 72 |  |
| O=C(/C=C/c1ccc(O)cc1)c1c(O)cc(O)cc1O[C@@H]1O[C@H](CO)[C@@H](O)[C@H](O)[C@H]1O | > 200 |  | > 200 | 8.45 (≈ 19.5 µM) |  |  |
| CN(Cc1cnc2nc(N)nc(N)c2n1)c1ccc(C(=O)N[C@@H](CCC(=O)O)C(=O)O)cc1 [METHOTREXATE] |  |  | 0.24 (≈ 0.528 µM) |  |  |  |
| O=c1c(-c2ccc(O[C@@H]3O[C@H](CO)[C@@H](O)[C@H](O)[C@H]3O)c(O)c2)coc2cc(O)cc(O)c12 | 0.169 (≈ 0.377 µM) |  | > 200 | 0.006 (≈ 0.0134 µM) |  | 0.009 (≈ 0.0201 µM) |
